Tests used:
[1] = system: L1210; test: Percent inhibition of incorporation of [Me-3H]-Thymidine into DNA of L1210 cells; format: functional, Mus musculus
[2] = system: L1210; test: Percent inhibition of incorporation of [8-14C]-Adenine into DNA of L1210 cells; format: functional, Mus musculus
[3] = system: L1210; test: Percent inhibition of incorporation of [5-3H]-Uridine into DNA of L1210 cells; format: functional, Mus musculus
[4] = system: L1210; test: Cytotoxicity was evaluated against the L1210 cell lines in vitro; format: functional; settings: Mus musculus, read-out: ED50 (the source's name)

Row | SMILES | Inhibition [1] [%] | Inhibition [2] [%] | Inhibition [3] [%] | EC50 [4] [µg/mL]
1 | Cc1cn(C2CC(O)C(CCNC(=O)CBr)O2)c(=O)[nH]c1=O (centres undefined) | 52 | 67 | 60 | –
2 | O=C(CBr)NC[C@H]1OC(n2cnc3c(O)ncnc32)[C@H](O)[C@@H]1O (some centres undefined) | – | – | – | < 5
